Laboratory results as given in US8030284B2, “Treatment of eye disorders characterized by an elevated intraocular pressure by siRNAs” (Sylentis S.A.U., priority 2004, dated 2011).

Experiments:
[1] = system: normotensive New Zealand rabbit; experiment: IOP reduction after topical application to the cornea; format: in vivo, New Zealand White rabbit; details: topical 40 ul to cornea, once daily for four days; control = contralateral eye with vehicle alone; mean of maximum reduction ± SEM
Description: The New Zealand rabbit is the gold standard in experimental platforms designed to study IOP. It is easy to handle and it has a big eye, similar in size to the human organ. In addition, present equipment to measure IOP is not suited to use in animals with small eyes such as mice or rats. Finally, rabbits have an IOP (around 23 mm Hg) that can be brought down to up to 40% its value using local commercial hypotensive medication. Thus, although it is possible to generate rabbit glaucoma models (for example, surgically blocking episclerotic veins or artificially occluding the trabecular meshwork), we have used normotensive rabbits since, in our hands, the pharmacological decrease in IOP can be easily and reproducibly measured.
Normotensive New Zealand White rabbits (males, 2-3 kg) were used. The animals were kept in individual cages with free access to food and water. They were submitted to artificial 12 hours light/darkness cycles, to avoid uncontrolled circadian oscillations of IOP Animal handling and treatment were carried out in accordance with the European Communities Council Directive (86/609/EEC) and the statement of the Association for Research in Vision and Ophthalmology on the Use of Animals in Ophthalmic and Vision Research.
The drugs were typically administered by instilling a small volume (typically 40 μL) on the corneal surface. Contralateral eyes were treated with the vehicle alone and could be used as controls in each experiment […] there is a sympathy phenomenon with the other eye. Multiple experiments in the same animal should be abolished.
IOP measurements were done using a contact tonometer (TONOPEN XL, Mentor, Norwell, Mass.). The TonoPen tonometer is very convenient due to its reliability and small size. Measurements with this instrument were performed delicately applying the tonometer's sensor to the corneal surface. […] All measurements fell within this interval: the mean baseline value of intraocular pressure was 17.0±0.39 mm Hg (n=100). […] In order to avoid distress to the animal, rabbits were topically anesthetized (oxibuprocaine/tetracaine, 0.4%/1%, in a saline solution (1/4 v:v). The solution was applied (10 μl) to the cornea before each measurement of intraocular pressure was made. siRNA or saline was applied topically to the cornea in volumes of 40 μl.
The standard protocol for the siRNA application in rabbit was as follows. Doses of siRNA in saline solution (0.9% w/v) to a final volume of 40 ul, were applied to one eye each day during four consecutive days. The opposite eye was taken as a control and 40 ul of sterile saline (0.9% w/v) were instilled on it, at the same time points. The IOP was measured before each application and at 2 h, 4 h and 6 h following the instillation, during 10 days. Maximum responses were observed between second and third day. To compare the effect of siRNA with other hypotensive compounds, Xalatan (latanoprost 0.005%) and Trustop (Dorzolamide 2%) were assayed and IOP measured in the same conditions.
Those siRNAs selected by the in vitro assays were applied to the animal model, following the protocol previously described. To avoid the effect of IOP fluctuations due to circadian cycles, all the applications were performed at the same time. To determine the siRNA effect, intraocular pressures (IOPs) were measured as previously mentioned.
The data are summarized in table II where values represent the mean of the maximum percentage of IOP reduction after siRNA treatment once normalized and their standard deviations. The decrease in IOP was statistically significant for all the treated targets. […] The siRNAs used in these experiments correspond to the human targets given in FIGS. 2A-2R as follows: • AC2: rabbit sequence homologous to human SEQ. ID. 73 • AC4: rabbit sequence identical to human SEQ. ID. 5 • AC12: rabbit sequence identical to human SEQ. ID. 522 • ADRB1: rabbit sequence identical to human SEQ. ID. 105 • ADRB2: rabbit sequence homologous to human SEQ. ID. […]

[2] = system: AC2; experiment: siRNA interference in cell cultures, real time PCR of AC2 transcript; format: cell-based, rabbit; details: normalized to actin relative to cell control, mean ± SD
Experimental: To check the specificity of the siRNA interference different cell cultures that express the target genes were employed. The cells used for these experiments were: rabbit non-pigmented ciliary epithelium cells NPE, human ciliary epithelium cells OMDC, and human embryonic kidney cells HEK293. The cells are incubated with the corresponding siRNA duplexes, and analysis of the downregulation of expression of the target gene is carried out.
Several examples of techniques well known in the art are as follows: We can perform a single transfection of siRNA duplex using a cationic lipid, such as RNAiFect Transfection Reagent (Qiagen) and Lipofectamine 2000 Reagent (Invitrogen) and assay for silencing 24, 48 and 72 hours after transfection.
A typical transfection protocol can be performed as follows: For one well of a 6-well plate, we transfect using 100 nM as final concentration of siRNA. Following RNAiFect protocol, we seed, the day before transfection, 2-4×10^5 cells per well in 3 ml of an appropriate growth medium, containing DMEM, 10% serum, antibiotics and glutamine, and incubate cells under normal growth conditions (37° C. and 5% CO2). On the day of transfection, cells have to be at 30-50% confluence. We dilute 15 ul of 20 uM siRNA duplex (corresponding to 100 nM final concentration) in 85 ul of Buffer EC-R, to give a final volume of 100 ul, and mix by vortexing. For complex formation, we add 19 ul of RNAiFect Transfection Reagent to the diluted siRNA and mix by pipetting or vortexing. After incubating the samples for 10-15 minutes at room temperature to allow formation of transfection complexes, we add the complexes drop-wise onto the cells with 2.9 ml of fresh growth medium low in antibiotics. After swirling the plates to ensure uniform distribution of the transfection complexes, we incubate the cells under their normal growth conditions. The day after, the complexes are removed and fresh and complete growth medium is added. To monitor gene silencing, cells are collected at 24, 48 and 72 hours post-transfection. The Lipofectamine 2000 Reagent protocol is quite similar. The day before transfection, we seed 2-4×10^5 cells per well in 3 ml of an appropriate growth medium, containing DMEM, 10% serum, antibiotics and glutamine, and incubate cells under normal growth conditions (37° C. and 5% CO2). On the day of transfection, cells have to be at 30-50% confluence. We dilute 12.5 ul of 20 uM siRNA duplex (corresponding to 100 nM final concentration) in 250 ul of DMEM, to give a final volume of 262.5 ul, and mix. Also, 6 ul of Lipofectamine 2000 is diluted in 250 ul of DMEM and mixed. After a 5 minutes incubation at room temperature, the diluted oligomer and the diluted Lipofectamine are combined to allow complex formation during a 20 minutes incubation at room temperature. […]

Compound	IOP reduction (% of the control) [1]	% of gene transcript level ([2]; 24 h siRNA treatment)	% of gene transcript level ([2]; 48 h siRNA treatment)
CCN[C@H]1C[C@H](C)S(=O)(=O)c2sc(S(N)(=O)=O)cc21 [Dorzolamide, reference compound]	16.41 ± 2.38 % of the control		
CC(C)OC(=O)CCC/C=C\C[C@@H]1[C@@H](CC[C@@H](O)CCc2ccccc2)[C@H](O)C[C@@H]1O [Latanoprost, latanoprost, reference compound]	25.46 ± 5.24 % of the control		
AC2 siRNA2: siRNA against AC2: rabbit sequence identical to human SEQ. ID. 54 (CTTCCCTGAGGATCCTCAA; listed as DNA, chemistry not given here; listed as Homo sapiens)		37.97 ± 9.78%	61.45 ± 9.62%
AC2 siRNA3: siRNA against AC2: rabbit sequence identical to human SEQ. ID. 66 (CTTCACTTGGTTCACTGGA; listed as DNA, chemistry not given here; listed as Homo sapiens)		35.30 ± 9.73%	51.14 ± 16.49%
ADRB1: siRNA against ADRB1: rabbit sequence identical to human SEQ. ID. 105 (CGACCCCAAGTGCTGCGAC; listed as DNA, chemistry not given here; listed as Homo sapiens)	28.04 ± 2.98 % of the control		
AGTR2: siRNA against AGTR2: rabbit sequence identical to human SEQ. ID. 774 (GCATCTTATATAGTTCCCC; listed as DNA, chemistry not given here; listed as Homo sapiens)	11.22 ± 1.53 % of the control		
ATP1A1: siRNA against ATP1A1: rabbit sequence identical to human SEQ. ID. 1399 (CTGGAACTCTGACTCAGAA; listed as DNA, chemistry not given here; listed as Homo sapiens)	18.13 ± 1.39 % of the control		
ATP1B2: siRNA against ATP1B2: rabbit sequence identical to human SEQ. ID. 1820 (GTTCCACGTGAACTACACA; listed as DNA, chemistry not given here; listed as Homo sapiens)	16.32 ± 0.91 % of the control		
